Test results from patent publication US20060148055A1, “Oxidised fragments of apolioprotein B and their uses” (priority 1997, published 2006).
No end group written: not given here. MDA = malondialdehyde

Test system: U937 monocytes
Assay: Inhibition of oxidised LDL uptake by peptides in monocytes in cell culture (DiI-labelled LDL fluorescence)
Type: cell-based
Details: versus oxidised LDL alone, ANOVA followed by Tukey post test
Procedure: An experiment was performed to determine in cell culture if uptake of oxidised LDL by U937 monocytes could be inhibited by the peptides according to SEQ ID NOs:1-3, both in their native state and conjugated to MDA.
LDL (1 mg/ml) was labelled with 1,1′-dioctadecyl-3,3,3′,3′,-tetramethylindocarbocyanine perchlorate (DiI) (300 μg/mg LDL) by incubation overnight at 37° C. in the dark under nitrogen. Excess DiI was removed by desalting into PBS (0.01 M phosphate buffer, 0.137 M sodium chloride, pH 7.4) through a PD-10 column.
U937 monocytes were maintained in RPMI media supplemented with heat inactivated fetal calf serum (10%) (FCS) and penicillin/streptomycin (1%). Cells were ‘starved’ of lipids by culturing in RMPI supplemented with penicillin/streptomycin (1%) in the absence of serum, and plated at 1 million cells per well in 6 well plates, 4 hours before treatment with DiI labelled LDL. […] Non-starved cells were also plated at 1 million cells per well in 6 well plates, 4 hours before treatment with DiI labelled LDL. Starved and non-starved cells were treated with DiI labelled LDL (oxidized) (50 μg) in the presence or absence of excess unlabelled peptide (native or MDA-conjugated) (500 μg) as competitor. […] Fluorescence was read at Ex 520 nm, Em 590 nm using a Molecular Devices Gemini XS microplate fluorimeter. […]

RB1: peptide SEQ ID NO: 1 (ALQYKLEGTTR) MDA-conjugated (ALQYK(MDA)LEGTTR)
inhibition of uptake of oxidised LDL by monocytes (in words): inhibition is statistically significant
inhibition of uptake of oxidised LDL by monocytes (in words) (listed as peptide corresponding to SEQ ID NO:1 conjugated to MDA): inhibits uptake
